Earlier results as cited in patent publication US20130102943A1, “RELOADABLE FINISHES FOR TEXTILES AND FORMULATIONS FOR LOADING SUCH FINISHES” (SCHOELLER TEXTIL AG, priority 2009, published 2013).

Test system: gram-negative and gram-positive bacteria, as well as yeasts and molds

## CCCCCCCCCCCC(=O)N[C@@H](CCCNC(=N)N)C(=O)OCC.Cl [Lauroyl arginate, Ethyl-N-alpha-lauroyl-L-arginate HCl]
  antimicrobial effectiveness: effective
